Experiments:
[1] = target: Beta-2 adrenergic receptor (Homo sapiens, UniProt P07550); test: Antagonist activity at human beta2 receptor expressed in CHO-K1 cells assessed as isoproterenol-induced cAMP level by HTRF assay; format: functional, cell-based
[2] = Chemical stability of compound in DMSO assessed as compound remaining at 10 mg/ml after 2 days at room temperature; format: physicochemical; conditions: read-out: Stability
[3] = Chemical stability of compound in 0.1N NaOH assessed as compound remaining at 10 mg/ml after 2 days; format: physicochemical; conditions: read-out: Stability
[4] = target: 5-hydroxytryptamine receptor 6 (Homo sapiens, UniProt P50406); test: Antagonist activity at human 5-HT6 receptor expressed in 1321N1 cells assessed as seretonin-induced cAMP by HTRF assay; format: functional, cell-based
5-hydroxytryptamine receptor 6, sequence (P50406 whole entry): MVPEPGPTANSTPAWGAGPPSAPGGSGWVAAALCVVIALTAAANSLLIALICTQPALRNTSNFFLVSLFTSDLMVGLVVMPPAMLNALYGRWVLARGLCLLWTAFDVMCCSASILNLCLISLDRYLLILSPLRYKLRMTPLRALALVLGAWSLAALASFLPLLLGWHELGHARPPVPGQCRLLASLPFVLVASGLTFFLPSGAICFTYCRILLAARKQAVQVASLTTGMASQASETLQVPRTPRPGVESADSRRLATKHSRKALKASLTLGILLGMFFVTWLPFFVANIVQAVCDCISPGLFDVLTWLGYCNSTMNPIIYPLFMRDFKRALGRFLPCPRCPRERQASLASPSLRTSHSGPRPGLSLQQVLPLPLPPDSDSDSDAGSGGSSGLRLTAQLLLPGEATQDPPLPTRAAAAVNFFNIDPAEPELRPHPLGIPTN

[5] = target: T1, Alpha-2A adrenergic receptor (Homo sapiens, UniProt P08913); test: Antagonist activity at human wild-type alpha 2A receptor expressed in CHO-K1 cells assessed as epinephrine-induced cAMP by HTRF assay; format: functional, cell-based
T1 sequence (P08913 whole entry): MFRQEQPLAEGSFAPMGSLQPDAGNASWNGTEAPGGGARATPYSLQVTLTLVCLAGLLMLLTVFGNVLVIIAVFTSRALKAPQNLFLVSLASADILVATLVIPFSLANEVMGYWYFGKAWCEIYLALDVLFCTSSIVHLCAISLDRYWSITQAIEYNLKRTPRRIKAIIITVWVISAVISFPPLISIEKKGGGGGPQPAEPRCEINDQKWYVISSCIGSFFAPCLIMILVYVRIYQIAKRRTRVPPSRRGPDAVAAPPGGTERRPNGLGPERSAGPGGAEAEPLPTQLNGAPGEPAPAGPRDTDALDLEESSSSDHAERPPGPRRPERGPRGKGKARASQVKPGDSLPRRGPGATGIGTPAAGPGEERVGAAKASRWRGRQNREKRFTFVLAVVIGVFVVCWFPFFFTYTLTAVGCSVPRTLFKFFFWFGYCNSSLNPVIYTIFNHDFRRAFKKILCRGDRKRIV

[6] = target: T2, Alpha-2C adrenergic receptor (Homo sapiens, UniProt P18825); test: Antagonist activity at human wild-type alpha 2C receptor expressed in CHO-K1 cells assessed as epinephrine-induced cAMP by HTRF assay; format: functional, cell-based
T2 sequence (P18825 whole entry): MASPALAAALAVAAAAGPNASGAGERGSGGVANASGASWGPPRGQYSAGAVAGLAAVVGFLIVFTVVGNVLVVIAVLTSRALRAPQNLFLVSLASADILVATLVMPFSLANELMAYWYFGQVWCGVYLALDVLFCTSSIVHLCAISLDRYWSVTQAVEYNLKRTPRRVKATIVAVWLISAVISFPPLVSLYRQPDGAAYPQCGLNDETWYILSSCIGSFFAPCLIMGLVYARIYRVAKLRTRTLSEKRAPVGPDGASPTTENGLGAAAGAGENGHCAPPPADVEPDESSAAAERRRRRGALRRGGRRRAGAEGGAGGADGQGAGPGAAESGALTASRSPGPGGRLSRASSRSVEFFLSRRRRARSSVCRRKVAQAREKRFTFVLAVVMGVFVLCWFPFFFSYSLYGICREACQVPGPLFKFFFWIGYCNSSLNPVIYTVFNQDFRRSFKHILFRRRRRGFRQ

Adenosine receptor A3 = target: T3, Adenosine receptor A3 (Homo sapiens, UniProt P0DMS8); test: Agonist activity at human wild-type A3 receptor expressed in CHO-K1 cells assessed as cAMP level by HTRF assay; format: functional, cell-based
T3 sequence (P0DMS8 whole entry): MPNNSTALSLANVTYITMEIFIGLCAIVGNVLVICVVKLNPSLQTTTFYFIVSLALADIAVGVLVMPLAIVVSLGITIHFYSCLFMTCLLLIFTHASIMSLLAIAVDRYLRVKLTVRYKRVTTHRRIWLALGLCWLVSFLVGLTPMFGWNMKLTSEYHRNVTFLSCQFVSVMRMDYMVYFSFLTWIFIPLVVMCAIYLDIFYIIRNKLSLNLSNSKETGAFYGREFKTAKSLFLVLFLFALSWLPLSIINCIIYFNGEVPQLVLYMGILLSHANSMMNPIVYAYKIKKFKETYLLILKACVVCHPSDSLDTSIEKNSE

[7] = target: T4, Alpha-1A adrenergic receptor (Homo sapiens, UniProt P35348); test: Agonist activity at human wild-type alpha 1A receptor expressed in CHO cells assessed as calcium level by HTRF assay; format: functional, cell-based
T4 sequence (P35348 whole entry): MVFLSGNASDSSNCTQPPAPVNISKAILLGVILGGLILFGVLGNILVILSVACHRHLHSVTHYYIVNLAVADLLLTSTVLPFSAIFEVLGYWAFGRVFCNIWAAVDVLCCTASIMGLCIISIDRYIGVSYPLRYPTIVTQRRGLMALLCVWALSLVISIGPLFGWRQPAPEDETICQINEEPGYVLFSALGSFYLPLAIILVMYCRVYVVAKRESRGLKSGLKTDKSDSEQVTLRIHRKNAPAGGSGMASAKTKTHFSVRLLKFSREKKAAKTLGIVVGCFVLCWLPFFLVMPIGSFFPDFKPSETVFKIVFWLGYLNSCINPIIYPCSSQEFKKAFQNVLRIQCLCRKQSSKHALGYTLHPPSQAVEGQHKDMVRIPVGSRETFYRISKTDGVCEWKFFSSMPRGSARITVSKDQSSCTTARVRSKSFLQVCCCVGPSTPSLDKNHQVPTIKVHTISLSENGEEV

[8] = target: T5, Type-1 angiotensin II receptor (Homo sapiens, UniProt P30556); test: Agonist activity at human wild-type AGTR1 receptor expressed in CHO-K1 cells assessed as calcium level by FDSS assay; format: functional, cell-based
T5 sequence (P30556 whole entry): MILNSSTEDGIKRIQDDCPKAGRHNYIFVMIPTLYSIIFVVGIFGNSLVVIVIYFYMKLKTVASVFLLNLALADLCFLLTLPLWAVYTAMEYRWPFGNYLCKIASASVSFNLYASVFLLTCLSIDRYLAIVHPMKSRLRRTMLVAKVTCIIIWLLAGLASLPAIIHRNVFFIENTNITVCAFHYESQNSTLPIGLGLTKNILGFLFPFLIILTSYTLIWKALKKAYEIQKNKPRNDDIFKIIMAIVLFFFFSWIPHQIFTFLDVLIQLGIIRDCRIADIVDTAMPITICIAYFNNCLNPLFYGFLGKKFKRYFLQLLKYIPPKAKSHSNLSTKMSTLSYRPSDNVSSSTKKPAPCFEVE

[9] = Log D of compound at pH 7.4 by chromotography; format: physicochemical; conditions: buffer
[10] = Intrinsic clearance in mouse liver microsomes at 1 uM by HPLC/MS/MS analysis; format: ADME; conditions: read-out: CLH
Cytochrome P450 2C9 = Cytochrome P450 2C9 (Homo sapiens, UniProt P11712); test: Inhibition of human CYP2C9 by LC-MS analysis; format: ADME
Cytochrome P450 2C9, sequence (P11712 whole entry): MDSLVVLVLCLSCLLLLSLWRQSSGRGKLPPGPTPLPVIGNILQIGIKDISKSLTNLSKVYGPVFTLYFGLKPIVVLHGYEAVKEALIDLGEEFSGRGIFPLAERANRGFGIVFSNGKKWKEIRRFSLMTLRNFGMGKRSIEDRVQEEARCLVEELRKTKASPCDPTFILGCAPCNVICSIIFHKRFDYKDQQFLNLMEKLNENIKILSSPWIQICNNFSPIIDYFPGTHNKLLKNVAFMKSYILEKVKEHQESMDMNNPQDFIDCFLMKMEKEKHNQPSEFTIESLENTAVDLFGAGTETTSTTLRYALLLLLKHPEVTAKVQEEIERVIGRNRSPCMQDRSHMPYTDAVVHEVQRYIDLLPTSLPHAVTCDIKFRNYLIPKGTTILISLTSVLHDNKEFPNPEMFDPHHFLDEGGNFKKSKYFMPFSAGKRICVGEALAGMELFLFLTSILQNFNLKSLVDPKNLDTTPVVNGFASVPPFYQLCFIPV

[11] = Fraction unbound in rat brain at 5 uM after 5 hrs by LC-MS/MS analysis; format: ADME, tissue-based

Beta-2 adrenergic receptor, sequence (P07550 whole entry): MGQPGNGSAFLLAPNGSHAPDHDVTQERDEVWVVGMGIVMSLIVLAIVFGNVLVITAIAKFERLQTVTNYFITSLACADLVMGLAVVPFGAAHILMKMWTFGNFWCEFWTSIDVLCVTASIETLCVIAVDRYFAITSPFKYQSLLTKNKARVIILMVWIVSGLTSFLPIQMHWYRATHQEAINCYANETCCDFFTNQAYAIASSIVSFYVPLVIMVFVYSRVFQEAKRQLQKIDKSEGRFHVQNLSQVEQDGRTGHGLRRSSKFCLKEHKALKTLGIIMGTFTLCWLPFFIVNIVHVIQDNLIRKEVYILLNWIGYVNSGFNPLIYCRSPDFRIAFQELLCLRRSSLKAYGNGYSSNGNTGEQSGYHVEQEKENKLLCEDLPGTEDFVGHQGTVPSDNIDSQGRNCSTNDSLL

Compound	IC50 [1] [µM]	remaining at 48 h, 10 mg/ml [2] [%]	remaining at 48 h, 10 mg/ml [3] [%]	IC50 [4] [µM]	IC50 [5] [µM]	IC50 [6] [µM]	EC50 (Adenosine receptor A3) [µM]	EC50 [7] [µM]	EC50 [8] [µM]	chromatographic logD [9]	microsomal CLint at 1 µM [10] [µL/min/mg]	IC50 (Cytochrome P450 2C9) [µM]	fraction unbound at 5 h, 5 µM [11]
CB1C=Cc2c(cccc2OCC(O)CN(C)C)N1 (stereo unspecified)	0.1	96	83	> 5.01	> 5.01	> 5.01	> 5.01	> 5.01	> 5.01	1.81	175	> 10	0.019
CB1C=Cc2cccc(OCC(O)CNC(C)C)c2N1 (stereo unspecified)	0.501	96	82	> 5.01	> 5.01	> 5.01	> 5.01	> 5.01	> 5.01	2.31	> 346	> 10	0.0055

From ChEMBL document CHEMBL3734721 (J Med Chem, 2015)
